In a melting point compilation (Tetko et al.; mined from patent text by program, amines drawn as free bases though some values may be those of a salt):

melting point [°C] | SMILES
90 to 92 | CCC(=O)N(C(=O)CC)c1c(OCc2ccccc2)cc(Br)cc1[N+](=O)[O-]
134 to 135 | CC(=O)c1ccc(-c2ccc3c(ccn3Cc3ccccc3)c2)cc1
174 to 175 | CC(C)(O)c1cccc(-c2ccc3nc(-c4ccc(Cl)cc4)c(F)n3c2)c1
165 to 170 | O=C(Nc1nccs1)c1nc(-c2ccc(N3CCC(N4CCOCC4)CC3)cc2)[nH]c1-c1ccc(Cl)cc1
150 to 152 | COc1ccc2c(c1)c(C=O)c(C)n2C(=O)c1ccc(Cl)cc1
83 to 84 | CCOC(=O)C1OC1C(=O)Nc1ccccc1 (stereo not drawn)
47 to 47.5 | O=C(OCCCc1nc(-c2ccc(Cl)cc2)co1)c1ccccc1
91 to 93 | O=C(c1ccccc1)C1CCN(Cc2cncc(-c3ccccc3)c2)CC1
253 to 255 | COC(=O)c1ccc(-c2cnc3[nH]c(=O)n(CC4CCCCC4)c3n2)cc1
> 280 | N#CCC(=O)Nc1ccc(-c2ncc(C(=O)O)c(O)n2)cc1
292 | O=c1[nH]c2c3ccccc3ccc2n(CC2CC2)c1=O
107 | COc1ccc(CN2C(=O)C(O)(c3cc(CO)ccc3Cl)c3cc(Cl)ccc32)c(OC)c1 (stereo not drawn)
105 to 107 | CCOC(=O)c1nccn1Cc1ccc(Cl)cc1[N+](=O)[O-]
86 to 88 | COc1ccc(C2=NN(Cc3ccccc3)C(=O)[C@H]3CCCC[C@@H]23)cc1OC (relative stereo)
103 to 107 | CS(=O)(=O)c1ccc(-n2nc(C(F)(F)F)cc2-c2ccc(-c3cscn3)cc2)cc1Cl
148 to 150 | CCN(CC)CCNC(=O)c1ccc(Nc2nccc(-c3cccnc3)n2)cc1
188 to 190 | COc1ccc(-c2noc(C(F)F)c2-c2ccc(S(N)(=O)=O)cc2)cc1F
167 to 168 | COc1ccc(-c2ccc(C(=O)c3ccccc3)cc2)cc1
146 to 147 | Cc1cc2ccccc2c(-c2ccc(I)cc2)n1
112 to 115 | CCOC(=O)c1ccc(-c2ccc(-c3ccc(OC)cc3)c(-c3ccc4c(c3)C(C)(C)CCC4(C)C)c2)cc1
280 to 284 | N#CN(c1ccccc1)c1nc(N(C#N)c2ccccc2)nc(N(c2ccccc2)c2ccccc2)n1
97 to 98 | Cn1c(=O)oc2cc(NCCCc3ccccc3)ccc21

melting point [°C] | SMILES
83 | COc1ccc(COC(=O)c2cc(Br)nn2-c2ncccc2Cl)cc1
69 to 70 | CCOC(=O)c1ccc(/C=C(\C)c2ccc3c(c2)C(C)(C)CCCC3)cc1
262 to 264 | Cc1[nH]c(=O)ccc1-c1ccc(S(C)=O)cc1 (stereo not drawn)
110 to 111 | CC(C)=CCCOc1c(-c2ccc(S(C)(=O)=O)cc2)cnn(-c2cccc(Cl)c2)c1=O
119 to 120 | Cc1cc(F)ccc1Nc1nc(N(C)c2ccccc2)c2cc(OCCCN3CCOCC3)ccc2n1
148 to 150 | COc1ccc2c(c1)c(CCO)c(C)n2-c1ncnc2cc(Cl)ccc12
> 400 | O=C(O)c1cccn2c(-c3ccc(F)cc3)cnc12
199 to 201 | Cc1nc(-c2ccccc2)c(NC(=O)Nc2ccccc2)s1
72 to 73 | OC(c1ccccc1)c1ccc(-c2ccccc2)cc1 (stereo not drawn)
124 to 126 | CCCc1nc(C(=O)OC)c(C(=O)OC)n1Cc1ccc(-c2ccccc2-c2nnnn2C(c2ccccc2)(c2ccccc2)c2ccccc2)cc1
205 to 207 | CCC(=Cc1cn(CC(=O)N(C)CCc2ccccc2)c2ccc(OCc3ccccc3)cc12)C(=O)O
128 to 130 | Cc1cccc(-c2nc(-c3ccc(S(C)=O)cc3)sc2-c2ccnc(C)c2)c1 (stereo not drawn)
145 to 155 | CC(=O)Nc1ccc(C(C)=NNc2ccc(C3=NNC(=O)CC3C)cc2)cc1 (stereo not drawn)
164 | COC(=O)Cc1sc(=O)[nH]c1/C=C/c1ccccc1
301 to 303 | O=c1[nH]c2ccccc2n2cc(-c3ccccc3)cc12
101 to 102 | CCOC(=O)c1ccc(-c2nc(CCl)c(C)o2)s1
141 | COc1ccc(-c2cc(=O)n(Cc3ccc(Cl)cc3Cl)nc2-c2ccc(OC)cc2)cc1
177 to 179 | O=C1Nc2cc(Cl)ccc2Cn2cccc21
> 250 | O=C(COCc1cc(Br)cc2[nH]c(=O)c(=O)[nH]c12)Nc1ccccc1
169 to 171 | COc1ccc2c(n1)C1(CO2)C(=O)N(Cc2ncc(Cl)n2C)c2ccccc21 (stereo not drawn)
151 to 152 | CC(C)N1CC2(COc3ccc([N+](=O)[O-])cc3OC2)OC1c1ccccc1 (stereo not drawn)

Continued, compound first:

SMILES | melting point [°C]
CCCSCCCCCCCCCC(=O)O | 42 to 43.5
Cc1ccc(C2C(=O)NC(=O)NC2=O)cc1 | 271
CC(C)(C)OC(=O)C(F)=CC1C(C(=O)O)C1(C)C (stereo not drawn) | 90
CC(C)(C)c1ccc(OP2N(C(C)(C)C)P(Oc3ccc(C(C)(C)C)cc3C(C)(C)C)N2C(C)(C)C)c(C(C)(C)C)c1 (stereo not drawn) | 205 to 210
O=C(O)C1=CSC2C(=Cc3nc4ncc5c(n4n3)CCC3(C5)OCCO3)C(=O)N12 (stereo not drawn) | > 250
CN(C)C(=O)C#C[C@H]1CC[C@H](N(C)C(=O)OC(C)(C)C)CC1 | 115 to 117
Fc1cc(Cl)ccc1-n1nc2c(c1Cl)CCCC2 | 82 to 85
CCn1nc2c(N)nc3ccccc3c2c1CC(C)(C)NS(C)(=O)=O | 229 to 230
CCCc1nc(C=O)c(Cl)c(N)c1F | 89 to 91
CC1Cc2cc3c(cc2C(c2ccc([N+](=O)[O-])cc2)=NN1c1ccc(Cl)nn1)OCO3 (stereo not drawn) | 254 to 255
CC(=O)OC1CSC(Oc2cnccc2-c2c(C)noc2C)C(OC(C)=O)C1OC(C)=O (stereo not drawn) | 150 to 155
COc1ccc(C2=NN(C3CCN(C(=O)N4CCOCC4)CC3)C(=O)[C@@H]3CC=CC[C@H]23)cc1OC | 184 to 185
CCOCc1nc2c(N)nc(C)c(C)c2n1CC1(O)CCC1 | 190 to 191
COc1c(C2CCN(CCCCNC(=O)c3ccc(-c4ccc(C#N)s4)nc3)CC2)ccc2c1CCCC2 | 186 to 188
CN(C#N)C(=O)CCC(=O)N(C)C#N | 112 to 114
COC(=O)c1ccccc1S(=O)(=O)Nn1c(SC)nn(-c2nc(OC)cc(OC)n2)c1=O | 179
O=c1oc2c(c(O)c1C1(c3ccccc3)CCC1)CCCCCC2 | 240 to 241
O=C(O)c1ccc(CCCC2SCC(=O)N2CCC2(O)C3CCCC2CCC3)cc1 (stereo not drawn) | 176 to 178
Cc1nnc(-c2ccccc2F)n2nc(OCc3ncnn3C)c(-c3ccoc3)c12 | 150 to 153
C=C(C)C(=O)OCCN(CCOC(=O)C(=C)C)c1ccc(N=Nc2ccc([N+](=O)[O-])cc2)cc1 | 88 to 90
Cc1cc(N2CCN(C(=O)N3CCN(S(=O)(=O)c4ccc(Br)cc4)CC3)CC2)ncn1 | 215 to 216
CCC(=O)Nc1c(-n2cncn2)cnn1-c1c(Cl)cc(C(F)(F)F)cc1Cl | 167 to 169
CCOC(=O)C1=Cc2cc(Cl)cc(CO)c2OC1C(F)(F)F (stereo not drawn) | 98 to 100
O[C@@H]1c2ccccc2CC[C@H]1N1CCC(O)(c2ccccc2)CC1 (relative stereo) | 184
CNC(=O)Oc1cccc(NC(=O)C=C(C)OC)c1 | 175
CN(C)C1(Cc2ccccc2)CCC(=O)CC1 | 80 to 84
Cc1ccc(S(=O)(=O)OCC2COc3ccc4nc(C)oc4c3O2)cc1 (stereo not drawn) | 123
COc1ccc2cc(C(=O)C(C)O[Si](C)(C)C)ccc2c1 (stereo not drawn) | 72 to 75

SMILES | melting point [°C]
CCC(=O)OC1(C(=O)CCl)CCC2C3CCC4CC(=O)CCC4(C)C3(F)C(=O)CC21C (stereo not drawn) | 168
Cc1c(C(=O)O)cnn1-c1ccc(F)cc1F | 183 to 184
COc1c(C)cnc(CO)c1C | 49 to 51
CCc1n[nH]c(CC)c1CCCCCCOc1ccc(OC)cc1Cl | 91 to 93
CC(C(=O)NC1=NCCS1)c1ccc(C(=O)c2cccs2)cc1 (stereo not drawn) | 186
COc1cc2c(cc1OC)[C@@H]1CCCC[C@@H]1N=C2c1ccc(NC(C)=O)cc1 (racemic) | 218
O=C([C@H]1CC[C@H](Nc2ncc3ncnc(Nc4ccc(F)c(Cl)c4)c3n2)CC1)N1CCOCC1 | 221 to 225
CCOC(=O)CC(NC(=O)CNC(=O)c1csc(NC(=N)N)n1)c1cccnc1 (racemic) | 114
CNc1nn2c(N)nnc2c2c1CCCC2 | 295 to 297
COc1ccc2c(c1)sc1nc(CO)cn12 | 202 to 205
CCCCC(=O)c1c(CN(CC)C(C)(C)C)nc2cc(OC)c(OC)cc2c1-c1ccc(OC)c(OC)c1 | 137 to 139
CCOC(=O)C(C(=O)N(C)C)=C(OC)c1ccc(Cl)cc1Cl | 88 to 92
CCOC(=O)Nc1nc(=O)n(CC2CC2)cc1F | 90 to 92
Cc1nonc1-n1cc(C(=O)O)c(=O)c2cc(F)c(Cl)nc21 | 242 to 247
CN(C)c1ccc2nnc(C(=O)O)c(O)c2c1 | > 330
CC(C)(C)c1ccc(NC(=O)c2ccccc2SSc2ccccc2C(=O)Nc2ccc(C(C)(C)C)cc2)cc1 | 135 to 138
CCCCCCCCCCCCCCCCCC(=O)N1CCN(c2cc(N3CCCC3)nc(N3CCCC3)n2)CC1 | 102 to 104
CNC(=O)ON=C1SCOC1COC (stereo not drawn) | 105 to 106
CC(C)[C@@H]1O[C@](C#CC2CC2)(C(F)(F)F)c2cc(Cl)ccc2NC1=O (relative stereo) | 167
CNc1cc(NS(=O)(=O)c2ccc(N)cc2)nc(NC)n1 | 303 to 305
CN(c1cccc2cc(C3=NCC(CN4CCS(=O)(=O)CC4)S3)[nH]c12)S(=O)(=O)c1cccs1 (stereo not drawn) | 242
COc1cc(OC)nc(C2(O)OC(=O)c3c(-c4ccco4)ccnc32)n1 (stereo not drawn) | 198 to 204
Cc1ccc(Cl)c2[nH]c(=O)oc(=O)c12 | 248 to 250
CCN(CC)C(=O)C(C)(C)C(=O)O | 110 to 112
CCCNC(=O)C(C)=Cc1ccc2c(c1)c(Cc1ccc(C(=O)OC)cc1OC)cn2CC(=O)N(C)C | 117 to 118
CC(=O)NCc1cc(CCC(=O)O)no1 | 134
COc1ccc(C2CC[N+]([O-])(CCC3CCOc4ccccc43)CC2)cc1OC (stereo not drawn) | 97
